According to patent US11850449B2, “Irradiation method and system” (priority 2017, dated 2023):
Read-outs that look alike come from different tables or passages of the source.

How the values were obtained:
brain tumour cells = brain tumour cells / brain tumours; reported; cited from earlier work
[1] = in vivo; cited from earlier work
normal tissues = details: reported; cited from earlier work
[2] = in vivo, cited from earlier work
liver tumours = details: reported [26, 27, 39]; cited from earlier work
liver = details: normal liver; reported [26, 27, 39]; cited from earlier work
[3] = test system: T98G (JCRB9041, human glioblastoma multiforme) cell lines; assay: Example 3 T98G cell proliferation (Resazurin/alamarBlue) after carbon or helium ion beam irradiation with neutron capture agents; format: cell-based; details: 500 μM; for Cell proliferation: 24 h incubation prior to irradiation, up to 168 hours, vs flasks without compound; for radiosensitisation: carbon and helium ion beams
Protocol: The approach of the aforementioned embodiments was tested experimentally. A series of proof-of concept experiments were performed at Japan's HIMAC facility, to quantify the effective increase in biological dose which can be achieved in vitro. Cultured T98-G cancer cells adhered to the inner surface of T25 cell culture flasks were irradiated in carbon and helium ion beams, with and without the presence of realistic concentrations of neutron capture agents.
Three frozen vials of T98G (JCRB9041, human glioblastoma multiforme) cell lines were purchased from the National Institutes of Biomedical Innovation, Health and Nutrition, JCRB Cell Bank and used throughout the experiments.
Prior to the start of the experiments, the cells were revived and passaged twice prior to seeding 160 T25 flasks, with 5 mL of complete growth medium (DMEM+10% FBS). Flasks were incubated at 37±1° C. in an atmosphere of 5±1% CO2.
The experiments utilised ^12C and ^4He beams with 60 mm Spread Out Bragg Peak (SOBP60) spectra, and an approximate dose rate of 1 Gy/min. Cell viability was measured as a function of ion beam dose in cultured T98-G human glioblastoma cells, with and without the presence of two neutron capture agents, ^10B enriched 4-borono-L-phenylalanine (^10B-BPA) and 2,2′,2″-(10-(4-(((triphenylphosphonio)methyl)benzyl)-1,4,7,10-tetraazacyclododecane-1,4,7-triyl)triacetatogadolinium(III) trifluoroacetate (157Gd-DOTA-TPP salt complex).
A set of 300×300×10 mm^3 PMMA slabs were used in conjunction with a PMMA receptacle for holding two flasks. With this arrangement, the flasks containing the cell cultures were positioned inside a cubic 300×300×300 mm^3 PMMA phantom in a plane normal to the incident beam, at a depth corresponding to the midpoint of the SOBP60 as illustrated schematically in FIG. 13. The neutron fluence predicted via Monte Carlo simulation in Example 2 is overlayed on this figure for illustrative purposes. The ion beams were ^12C and ^4He beams with dimensions of 100×100 mm^2 (width×height) and SOBP60 energy spectra with mean energies of 290 MeV/u and 150 MeV/u, respectively (corresponding to SOBP depth ranges of approximately 8 to 14 cm in PMMA).
The irradiation campaign was conducted on four consecutive nights (carbon ion beam irradiations were conducted on the first and third nights, while helium ion beam irradiations were performed on the second and fourth night) at the HIMAC biological beamline. Forty flasks were irradiated during each night, at 80% to 90% confluence (corresponding to ˜3.75×10^5 cells per flask). Twenty-four hours prior to each irradiation, 10 flasks were incubated with 500 μM of ^10B-BPA, while a second set of 10 flasks were incubated with 500 μM of ^157Gd-DOTA-TPP salt complex. The remaining 20 flasks were used as control.
On the night of irradiation, the beam was calibrated for dose rate and dose-depth deposition and the dose-rate at the centre of the Bragg peak (corresponding to the location of the cells) was measured with an ionisation chamber. Immediately prior to irradiation, flasks were filled with a complete DMEM media (˜30 mL per flask). Flasks were irradiated in pairs, with flasks containing the neutron capture agents irradiated together, followed by corresponding control flasks (containing no neutron capture agent). Ten different dose values were used with each ion beam: 0, 0.9, 1.8, 2.3, 2.7, 3.2, 3.6, 4.1, 4.6, and 7.3 Gy for helium, and 0, 0.6, 1.3, 1.6, 1.9, 2.2, 2.5, 2.8, 3.1 and 5 Gy for carbon.
After irradiation, the medium was aseptically removed from the irradiated flasks. Cells were washed with 5 mL of DPBS which was removed and discarded. Cells were then trypsinised, detached from the flasks and resuspended in completed growth medium. Cell count and viability was recorded.
Sixteen 96-well plates were populated each night, each well containing approximately 375 cells, and each set of three wells corresponding to one flask. […]

[4] = value used in Example 2 dose relation; cited from earlier work
GBM (in vitro) = details: cited from earlier work
[5] = Example 2 Monte Carlo simulation and treatment plan, neutron capture dose enhancement in PMMA target; details: based on photon activated therapy studies with the same agent, corrected for expected Auger electron production
Protocol: In a further example, a similar set of simulations was conducted. Significance was arbitrarily defined as an average 10% increase in photon-equivalent dose within a tumour resulting from the administration of a non-toxic bolus of neutron-capture agent (though it is envisaged that the method of this embodiment can be used with any desired dose increase factor). To do so, the concentration of neutron capture agent required to provide a 10% increase in effective photon-equivalent dose is determined for a simple simulated therapeutic proton/heavy ion treatment plan, and this is compared with concentrations reported in the literature.
The first step is to evaluate the neutron fluence resulting from pencil-beam irradiation of a point within a target volume. […] Dose and neutron fluence distributions were recorded for each simulation; corresponding distributions at energies in between these were also estimated by interpolating between the distributions obtained at these energies. […] The primary particle fluence at each energy was then weighted such that an approximately flat biological effective dose (BED) was delivered to a defined treatment volume by the ion beam; two 50 mm cubic volumes were evaluated, one centred at a depth of 125 mm and a second centred at a depth of 165 mm. […]

[6] = test system: T98G (glioblastoma, in vitro); details: cited from earlier work
glioblastoma cell nuclei = details: cited from earlier work
[7] = in vivo; cited from earlier work; remark: listed apart in the source
[8] = rat, in vivo; cited from earlier work

## N[C@@H](Cc1ccc([10B](O)O)cc1)C(=O)O [BPA, ^10B-4-borono-L-phenylalanine]
Brain tumour cells
  CBE: 3.6-3.8
[1]
  concentration ratio (tumour:normal tissue): 2.8
Normal tissues
  CBE: 0.9-1.3
[2]; iv
  Concentration (PPM): 30 ± 12 PPM
  Concentration ratio (tumour to healthy tissue): 5:1 ^
[2]
  highest BPA concentration reported in the literature: 125 ppm
  tumour to healthy tissue concentration ratio: 5:1-8:1
Liver tumours
  CBE, tumour: 9.94
liver
  CBE, liver: 4.25
[3]; carbon beam 0 to 5 Gy
  Cell proliferation: substantially reduced
[3]; helium beam
  Cell proliferation: substantially reduced
[3]
  radiosensitisation: clear and substantial radiosensitisation
[4]
  compound biological effectiveness CBE: 3.8

## O=C([O-])CN1CCN(CC(=O)[O-])CCN(CC(=O)O)CCN(CC(=O)[O-])CC1.[Gd+3] [Gd-DOTA]
GBM (in vitro)
  Concentration (ppM): 140 (1 h) ppM
  accumulation within the cell nucleus: neither accumulates to significant concentration

## O=C([O-])CN(CCN(CC(=O)[O-])CC(=O)O)CCN(CC(=O)[O-])CC(=O)O.[Gd+3] [Gd-DTPA]
GBM (in vitro); reported [40]
  accumulation within the cell nucleus: neither accumulates to significant concentration

## O=C([O-])C(F)(F)F.O=C([O-])CN1CCN(CC(=O)[O-])CCN(Cc2ccc(C[P+](c3ccccc3)(c3ccccc3)c3ccccc3)cc2)CCN(CC(=O)[O-])CC1.[Gd+3] [^157Gd-DOTA-TPP salt complex]
[5]
  compound biological effectiveness CBE: ≈ 40
[3]; carbon beam 0 to 5 Gy
  Cell proliferation: substantially reduced
[3]; helium beam
  Cell proliferation: substantially reduced
[3]
  radiosensitisation: clear and substantial radiosensitisation

## [Gd] [gadolinium]
[6]
  values previously published, concentration: up to 3000 ppm

## CC(=O)[O-].CC(=O)[O-].CCc1c(CC)c2cc3nc(cnc4cc(OCCOCCOCCOC)c(OCCOCCOCCOC)cc4ncc4nc(cc1[n-]2)C(CCCO)=C4C)C(C)=C3CCCO.O.[Gd+3] [motexafin-gadolinium]
Glioblastoma cell nuclei
  prolonged retention of gadolinium in vitro: up to 2 months
  uptake in glioblastoma cell nuclei: 90%
[7]
  tumour to healthy tissue uptake ratio: 70:1

## boron
[8]
  values previously published, tumour concentration: up to 231 ppm

## sodium mercaptoundecahydro-closo-dodecaborate [BSH]
[1]
  concentration ratio (tumour:normal tissue): 0.3
[2]
  tumour to healthy tissue concentration ratio: 1.2-3.5
Liver tumours
  CBE, tumour: 4.22
liver
  CBE, liver: 0.94
